Results as given in patent US9682976B2, “Protein kinase C inhibitors and uses thereof” (Rigel Pharmaceuticals, Inc., priority 2012, dated 2017).

System: PKC mediated IL-2 production
Assay: IL-2 ELISA, human primary T cell, anti CD3+CD28+
Format: cell-based
Conditions: Homo sapiens, T-cell, 24 h, human primary T cells stimulated with αCD3 and αCD28, 24 hours
Procedure: Compounds 1-328 were tested in a whole cell functional assay for PKC mediated IL-2 production as follows. Human primary T cell isolation and culture: Human primary T cells were prepared as follows. Whole blood was obtained from a healthy volunteer, mixed 1:1 with PBS, layered on to Ficoll Hypaque (Amersham Pharmacia Biotech, Piscataway, N.J., Catalog #17-1440-03) in 2:1 blood/PBS:ficoll ratio and centrifuged for 30 minutes at 4° C. at 1750 rpm. The cells at the serum: ficoll interface were recovered and washed twice with 5 volumes of PBS. These freshly isolated human peripheral blood mononuclear cells were cultured in Yssel's medium containing 40 U/ml IL2 in a flask pre-coated with […] αCD3 and 5 μg/ml αCD28 (Anti-Human CD3, BD Pharmingen Catalog #555336, Anti-Human CD28, Beckman Coulter Catalog #IM1376). The cells were stimulated for 3-4 days, then transferred to a fresh flask and maintained in RPMI (RPMI-1640 with L-Glutamine; Mediatech, Inc., Herndon Va., cat. #10-040-CM) with 10% FBS and 40 U/ml IL-2. The primary T-cells were then washed twice with PBS to remove the IL-2.
Primary T cell stimulation and IL2 ELISA: Human primary T cells (100,000 cells per well) were pre-incubated with or without test compound in Yssel's medium for 1 hour at 37° C. Cells were then stimulated by transferring them to round-bottom 96-well plates pre-coated with […] αCD3 and 5 μg/ml αCD28. For counter assay, cells were instead stimulated by adding 8× stock solutions of PMA and ionomycin in Yssels (for final concentrations of 0.5 ng/ml PMA and 0.1 uM ionomycin, both from Calbiochem). Cells were incubated at 37° C. for 24 hours before 100 μL supernatants were harvested for quantification of IL-2 by ELISA using Human IL-2 Duoset ELISA Kit from R and D Systems, Cat. # DY202E.

`Cn1nc2n(c1=O)-c1cc(Nc3ncc(F)c(N[C@@H]4C[C@@H]5CCCN5C(C)(C)C4)n3)ccc1OC21COC1` [Compound 293, 5-fluoro-N2-(1H-2,4-dihydron-spiro(2H-1,4-benzoxazine-4,3′-[3H]oxetan)-2-methyl-[1,2,4]triazolo[3,4-c][1,4]benzoxazin-1-one-8-yl)-N4-((7R,8aS)-octahydro-5,5-dimethylindolizin-7-yl)pyrimidine-2,4-diamine] and `Cn1nc2n(c1=O)-c1cc(Nc3ncc(F)c(N[C@@H]4C[C@@H]5CCCN5C(C)(C)C4)n3)ccc1OC2(C)C` [Compound 248, 5-fluoro-N2-(1H-2,4-dihydron-2,4,4-trimethyl-[1,2,4]triazolo[3,4-c][1,4]benzoxazin-1-one-8-yl)-N4-((7R,8aS)-octahydro-5,5-dimethylindolizin-7-yl)pyrimidine-2,4-diamine] fall in the same range of EC50: 100 to 500 nM for the first, 100 to 500 nM for the second.

First: CC1(C)C[C@H](Nc2nc(Nc3cc(S(F)(F)(F)(F)F)ccc3F)ncc2F)C[C@@H]2CCCN21 [Compound 71]
Second: CC1(C)CC(Nc2nc(Nc3cc(-n4cnnn4)c(C4CC4)cc3F)ncc2F)CC2CCCN21 (single isomer, unassigned) [Compound 54, N^2-(4-cyclopropyl-2-fluoro-5-(1H-tetrazol-1-yl)phenyl)-5-fluoro-N^4-(octahydro-5,5-dimethylindolizin-7-yl)pyrimidine-2,4-diamine]
The EC50 of the first is higher: 500 to 1000 nM for the first, under 100 nM for the second. The second is the more potent here.

`Cn1nnn(-c2cc(Nc3ncc(F)c(N[C@@H]4C[C@@H]5CCCN5C(C)(C)C4)n3)c(F)cc2CCCO)c1=O` [Compound 97, 1-(5-(4-((7R,8aS)-octahydro-5,5-dimethylindolizin-7-ylamino)-5-fluoropyrimidin-2-ylamino)-4-fluoro-2-(3-hydroxypropyl)phenyl)-4-methyl-1H-tetrazol-5(4H)-one] and `Cn1nnn(-c2cc(Nc3ncc(F)c(N[C@@H]4C[C@@H]5CCCN5C(C)(C)C4)n3)c(F)cc2CCO)c1=O` [Compound 93, 1-(5-(4-((7R,8aS)-octahydro-5,5-dimethylindolizin-7-ylamino)-5-fluoropyrimidin-2-ylamino)-4-fluoro-2-(2-hydroxyethyl)phenyl)-4-methyl-1H-tetrazol-5(4H)-one] fall in the same range of EC50: 100 to 500 nM for the first, 100 to 500 nM for the second.

First: [2H]C1(Oc2ccc(Nc3ncc(F)c(N[C@H]4CCN5[C@@H](CCC5(C)C)C4)n3)cc2Cl)CC(OCc2ccccc2)C1 (stereo partly drawn) [Compound 311, N2-(4-(3-(benzyloxy)cyclobutoxy-1-d)-3-chlorophenyl)-N4-((7S,8aS)-3,3-dimethyloctahydroindolizin-7-yl)-5-fluoropyrimidine-2,4-diamine]
Second: CC1(C)CC[C@H]2C[C@@H](Nc3nc(Nc4ccc(OC5CC(O)C5)c(C#N)c4)ncc3F)CCN21 (some centres unmarked) [Compound 304]
The EC50 of the first is higher: 1000 to 10000 nM for the first, 100 to 500 nM for the second. The second is the more potent here.

First: Cn1nnn(-c2cc(Nc3ncc(Cl)c(N[C@@H]4C[C@@H]5CCCN5C(C)(C)C4)n3)c(F)cc2OCC(C)(C)O)c1=O [Compound 240, 1-(5-((5-chloro-4-(((7R,8aS)-5,5-dimethyloctahydroindolizin-7-yl)amino)pyrimidin-2-yl)amino)-4-fluoro-2-(2-hydroxy-2-methylpropoxy)phenyl)-4-methyl-1,4-dihydro-5H-tetrazol-5-one]
Second: CO[C@@H](C)COc1cc(F)c(Nc2ncc(Cl)c(N[C@@H]3C[C@@H]4CCCN4C(C)(C)C3)n2)cc1-n1nnn(C)c1=O [Compound 238, 1-(5-((5-chloro-4-(((7R,8aS)-5,5-dimethyloctahydroindolizin-7-yl)amino)pyrimidin-2-yl)amino)-4-fluoro-2-((S)-2-methoxypropoxy)phenyl)-4-methyl-1,4-dihydro-5H-tetrazol-5-one]
The EC50 of the first is lower: under 100 nM for the first, 500 to 1000 nM for the second.

First: CC1(C)C[C@H](Nc2nc(Nc3ccc(O[C@H]4CCNC[C@@H]4F)c(C(F)(F)F)c3)ncc2F)C[C@@H]2CCCN21 [Compound 121]
Second: Cn1nnn(-c2cc(Nc3ncc(F)c(NC4CC5CCCN5C(C)(C)C4)n3)ccc2OC2COC2)c1=O (single isomer, unassigned) [Compound 39, 1-(5-(5-fluoro-4-(octahydro-5,5-dimethylindolizin-7-ylamino)pyrimidin-2-ylamino)-2-(oxetan-3-yloxy)phenyl)-4-methyl-1H-tetrazol-5(4H)-one]
The EC50 of the first is lower: under 100 nM for the first, 100 to 500 nM for the second. The first is the more potent here.

`COc1cc(-n2nnnc2C)cc(Nc2ncc(F)c(N[C@@H]3C[C@@H]4CCCN4C(C)(C)C3)n2)c1F` [Compound 242, 5-fluoro-N2-(2-fluoro-3-methoxy-5-(5-methyl-1H-tetrazol-1-yl)phenyl)-N4-((7R,8aS)-octahydro-5,5-dimethylindolizin-7-yl)pyrimidine-2,4-diamine] and `CSc1nnnn1-c1cccc(Nc2ncc(F)c(N[C@@H]3C[C@@H]4CCCN4C(C)(C)C3)n2)c1` [Compound 261, 5-fluoro-N4-((7R,8aS)-octahydro-5,5-dimethylindolizin-7-yl)-N2-(3-(5-(methylthio)-1H-tetrazol-1-yl)phenyl)pyrimidine-2,4-diamine] cannot be ordered by EC50: under 100 nM for the first, under 100 nM for the second.

First: Cn1nc2n(c1=O)-c1cc(Nc3ncc(F)c(N[C@@H]4C[C@@H]5CCCN5C(C)(C)C4)n3)ccc1OC2(CO)CO [Compound 288, 5-fluoro-N2-(1H-2,4-dihydron-4,4-di(hydroxymethyl)-2-methyl-[1,2,4]triazolo[3,4-c][1,4]benzoxazin-1-one-8-yl)-N4-((7R,8aS)-octahydro-5,5-dimethylindolizin-7-yl)pyrimidine-2,4-diamine]
Second: CC1(C)C[C@H](Nc2nc(Nc3ccc(OCCO)c(-n4cnnn4)c3)ncc2F)C[C@@H]2CCCN21 [Compound 205, 2-(4-((4-(((7R,8aS)-5,5-dimethyloctahydroindolizin-7-yl)amino)-5-fluoropyrimidin-2-yl)amino)-2-(1H-tetrazol-1-yl)phenoxy)ethan-1-ol]
The EC50 of the first is higher: 1000 to 10000 nM for the first, under 100 nM for the second. The second is the more potent here.

In the case of `Cn1nnn(-c2cc(Nc3ncc(F)c(N[C@@H]4C[C@@H]5C[C@@H](F)CN5C(C)(C)C4)n3)c(F)cc2C2CC2)c1=O` [Compound 64, 1-(5-(4-((2R,7R,8aR)-2-fluoro-octahydro-5,5-dimethylindolizin-7-ylamino)-5-fluoropyrimidin-2-ylamino)-2-cyclopropyl-4-fluorophenyl)-4-methyl-1H-tetrazol-5(4H)-one], the EC50 is reported as 100 to 500 nM.

Same assay, conditions: T-cell, human primary T cells stimulated with αCD3 and αCD28, 24 hours

`Cn1nc2n(c1=O)-c1cc(Nc3ncc(F)c(N[C@@H]4C[C@@H]5CCCN5C(C)(C)C4)n3)ccc1OC2(CO)CO[Si](C)(C)C(C)(C)C` (stereo partly drawn) [Compound 287, 5-fluoro-N2-(1H-2,4-dihydron-4-(hydroxymethyl)-4-(((1,1-dimethylethyl)dimethylsilyl)oxymethyl)-2-methyl-[1,2,4]triazolo[3,4-c][1,4]benzoxazin-1-one-8-yl)-N4-((7R,8aS)-octahydro-5,5-dimethylindolizin-7-yl)pyrimidine-2,4-diamine] was tested, and the EC50 was 1000 to 10000 nM.

Same assay, conditions: human primary T cells stimulated with αCD3 and αCD28, 24 hours

First: Cn1nnn(-c2cc(Nc3ncc(F)c(NC4CCN5CCCC5C4)n3)c(F)cc2C2CC2)c1=O (centres unmarked) [Compound 29]
Second: CC1(C)Oc2ccc(Nc3ncc(F)c(N[C@@H]4C[C@H]5CCCN5C(C)(C)C4)n3)cc2-n2nnnc21 [Compound 2, N2-(4,4-dimethyl-4H-benzo[b]tetrazolo[1,5-d][1,4]oxazin-8-yl)-5-fluoro-N4-(octahydro-5,5-dimethylindolizin-7-amine)pyrimidine-2,4-diamine]
The EC50 of the first is higher: 1000 to 10000 nM for the first, under 100 nM for the second.
